Source: article PMC11230136 (Cell reports, 2024)

What was measured:
[1] = tested on: pilocarpine-induced SE mice; assay: Pilocarpine-induced status epilepticus
hippocampal neurons = assay: Apoptotic nuclei; assay type: cell-based, rat; conditions: 1-h 100 μM NMDA, co-incubation with 5 μM inhibitor
[2] = biological target: activated c-Abl immunoprecipitated from neurons (Rattus norvegicus, UniProt A0ABK0LKB8); assay: In vitro phosphorylation kinase assay; assay type: biochemical; conditions: pre-incubation with 5 μM inhibitor (controls)
activated c-Abl immunoprecipitated from neurons, sequence (A0ABK0LKB8 1-1124): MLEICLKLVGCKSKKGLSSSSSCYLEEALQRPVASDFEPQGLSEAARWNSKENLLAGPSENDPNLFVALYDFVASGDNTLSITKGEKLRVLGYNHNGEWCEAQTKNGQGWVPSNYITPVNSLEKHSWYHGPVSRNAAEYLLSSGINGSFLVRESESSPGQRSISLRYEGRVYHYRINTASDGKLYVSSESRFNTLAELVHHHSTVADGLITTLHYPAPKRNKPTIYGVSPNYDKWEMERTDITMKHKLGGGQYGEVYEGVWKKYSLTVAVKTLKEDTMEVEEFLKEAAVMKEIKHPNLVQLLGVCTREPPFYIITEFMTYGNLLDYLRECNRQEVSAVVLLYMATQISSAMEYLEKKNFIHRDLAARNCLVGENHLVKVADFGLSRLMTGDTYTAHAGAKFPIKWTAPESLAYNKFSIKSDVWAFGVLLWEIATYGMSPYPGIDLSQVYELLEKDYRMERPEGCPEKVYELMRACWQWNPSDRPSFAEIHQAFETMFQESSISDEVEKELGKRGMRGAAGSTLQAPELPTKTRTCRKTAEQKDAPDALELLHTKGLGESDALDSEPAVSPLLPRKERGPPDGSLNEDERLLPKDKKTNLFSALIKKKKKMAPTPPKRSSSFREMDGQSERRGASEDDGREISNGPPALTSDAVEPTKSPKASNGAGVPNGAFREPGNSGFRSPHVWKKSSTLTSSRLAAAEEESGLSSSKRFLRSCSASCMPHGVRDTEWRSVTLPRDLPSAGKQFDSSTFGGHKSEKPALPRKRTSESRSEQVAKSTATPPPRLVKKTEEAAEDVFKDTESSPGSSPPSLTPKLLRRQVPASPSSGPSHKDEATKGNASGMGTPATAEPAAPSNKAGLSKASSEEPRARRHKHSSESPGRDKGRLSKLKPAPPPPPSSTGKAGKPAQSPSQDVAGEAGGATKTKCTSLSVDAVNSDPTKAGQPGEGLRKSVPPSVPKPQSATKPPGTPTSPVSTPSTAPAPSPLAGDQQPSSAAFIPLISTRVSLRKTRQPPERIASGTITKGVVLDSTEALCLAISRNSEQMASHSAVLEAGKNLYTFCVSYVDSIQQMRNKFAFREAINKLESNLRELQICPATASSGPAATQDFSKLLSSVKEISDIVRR

[3] = In vivo toxicity / tolerability observation; parameters: species or system mouse; conditions: diet 20, 67 or 200 ppm for 14 days
[4] = i.p. pre-treatment 12.5 mg/kg for 3 days, 60 min post pilocarpine
[5] = diet for 15 days (neurotinib 67 ppm, nilotinib 200 ppm), 60 min post pilocarpine

| SMILES | Mice with SE [1, 4] [%] | Mice with single seizures but no SE [1, 4] [%] | Total mortality [1, 4] [%] | apoptotic nuclei (Hoechst) (hippocampal neurons) | CRKII-GST phosphorylation [2] | Mice with SE [1, 5] [%] | Total mortality [1, 5] | Latency SE ([1]; diet for 15 days (neurotinib 67 ppm, nilotinib 200 ppm), mean ± SEM) [min] | acute toxicity or changes in behavior [3] |
| --- | --- | --- | --- | --- | --- | --- | --- | --- | --- |
| Cc1ccc(NC(=O)c2ccc(CN3CCN(C)CC3)cc2)cc1Nc1nccc(-c2cccnc2)n1 [imatinib] | 68 | 29 | 36 | apoptosis reduction | inhibits CRKII-GST phosphorylation |  |  |  |  |
| Cc1cn(-c2cc(NC(=O)c3ccc(C)c(Nc4nccc(-c5cccnc5)n4)c3)cc(C(F)(F)F)c2)cn1 [nilotinib] |  |  |  |  |  | 70 | none | 32.6 ± 6.1 | No signs of acute toxicity or changes in behavior |
